One assay deals with Tyk2 kinase domain (DH1) (Homo sapiens (Human), UniProt P29597). The experiment in a line: Tyk2 Radioactive Kinase Assay. It counts as biochemical. The note with it: compound at 10 μM, ATP 10 μM; for inhibition at 10 µM: read-out: Tyk2 JH1% Inhibition @ 10 μM. Summed up: (§1)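 Single-point screen: 10 μM test compound, radioactive kinase read-out, percent inhibition reported for each kinase domain.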

In another assay the target is JAK2 kinase domain (JH1) (Homo sapiens (Human), UniProt O60674). The experiment in a line: JAK2 Radioactive Kinase Assay. The note with it: compound at 10 μM, ATP 10 μM; for inhibition at 10 µM: read-out: JAK2 JH1% Inhibition @ 10 μM. It counts as biochemical. Summed up:
as §1

The target of assay [1] is JAK2/JAK2 homdimeric complex (Homo sapiens (Human), UniProt O60674). The experiment in a line: GM-CSF Induced pSTAT5 in Human PBMC. It counts as cell-based. The note with it: GM-CSF 5 ng/mL for 20 minutes, pSTAT5 by MSD, read-out: PBMC_GMCSF_pSTAT5 IC50.
Assay [2] concerns the target Tyk2/JAK2 (heterodimeric complex) (Homo sapiens (Human), UniProt P29597). The experiment in a line: IL-12 Induced pSTAT4 in Human PBMC. Format: cell-based. Conditions: 1.7 ng/mL IL-12. An excerpt: The IL-12 Induced pSTAT4 assay evaluates the inhibition of IL-12 induced STAT4 phophorylation mediated by Tyk2/JAK2 (heterodimeric complex).
Assay [3] addresses human TYK2 (JH2domain-pseudokinase) (Homo sapiens (Human), UniProt P29597). The assay is described as follows: TYK2 JH2 Domain Binding Assay (KINOMEscan). Summed up: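 Displacement of a DNA-tagged TYK2 JH2 fusion (human, aa G556–D888, HEK293 extract, <0.1 nM) from ligand-coated beads over 1 h at RT; binding buffer PBS/0.05% Tween 20/10 mM DTT/0.1% BSA.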

Chain of Tyk2 kinase domain (DH1) (P29597 897-1176): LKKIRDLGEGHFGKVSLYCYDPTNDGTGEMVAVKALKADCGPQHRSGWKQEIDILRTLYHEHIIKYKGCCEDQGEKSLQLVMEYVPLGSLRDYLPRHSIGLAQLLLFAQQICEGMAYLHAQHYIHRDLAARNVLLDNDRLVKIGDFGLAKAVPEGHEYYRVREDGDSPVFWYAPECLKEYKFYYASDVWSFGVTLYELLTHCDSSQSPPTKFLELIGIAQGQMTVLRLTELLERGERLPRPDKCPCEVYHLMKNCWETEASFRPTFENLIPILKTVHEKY
Chain of JAK2 kinase domain (JH1) (O60674 849-1124): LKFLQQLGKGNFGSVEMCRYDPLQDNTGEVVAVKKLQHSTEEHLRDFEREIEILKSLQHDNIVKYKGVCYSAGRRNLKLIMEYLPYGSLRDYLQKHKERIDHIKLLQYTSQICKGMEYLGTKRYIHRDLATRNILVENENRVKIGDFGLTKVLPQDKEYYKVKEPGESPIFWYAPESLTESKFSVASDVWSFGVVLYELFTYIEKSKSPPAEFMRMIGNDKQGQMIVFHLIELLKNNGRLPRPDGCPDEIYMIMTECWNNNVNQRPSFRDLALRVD
Chain of Tyk2/JAK2 (heterodimeric complex) (P29597 whole entry, other chains not shown, the tested form may be a part): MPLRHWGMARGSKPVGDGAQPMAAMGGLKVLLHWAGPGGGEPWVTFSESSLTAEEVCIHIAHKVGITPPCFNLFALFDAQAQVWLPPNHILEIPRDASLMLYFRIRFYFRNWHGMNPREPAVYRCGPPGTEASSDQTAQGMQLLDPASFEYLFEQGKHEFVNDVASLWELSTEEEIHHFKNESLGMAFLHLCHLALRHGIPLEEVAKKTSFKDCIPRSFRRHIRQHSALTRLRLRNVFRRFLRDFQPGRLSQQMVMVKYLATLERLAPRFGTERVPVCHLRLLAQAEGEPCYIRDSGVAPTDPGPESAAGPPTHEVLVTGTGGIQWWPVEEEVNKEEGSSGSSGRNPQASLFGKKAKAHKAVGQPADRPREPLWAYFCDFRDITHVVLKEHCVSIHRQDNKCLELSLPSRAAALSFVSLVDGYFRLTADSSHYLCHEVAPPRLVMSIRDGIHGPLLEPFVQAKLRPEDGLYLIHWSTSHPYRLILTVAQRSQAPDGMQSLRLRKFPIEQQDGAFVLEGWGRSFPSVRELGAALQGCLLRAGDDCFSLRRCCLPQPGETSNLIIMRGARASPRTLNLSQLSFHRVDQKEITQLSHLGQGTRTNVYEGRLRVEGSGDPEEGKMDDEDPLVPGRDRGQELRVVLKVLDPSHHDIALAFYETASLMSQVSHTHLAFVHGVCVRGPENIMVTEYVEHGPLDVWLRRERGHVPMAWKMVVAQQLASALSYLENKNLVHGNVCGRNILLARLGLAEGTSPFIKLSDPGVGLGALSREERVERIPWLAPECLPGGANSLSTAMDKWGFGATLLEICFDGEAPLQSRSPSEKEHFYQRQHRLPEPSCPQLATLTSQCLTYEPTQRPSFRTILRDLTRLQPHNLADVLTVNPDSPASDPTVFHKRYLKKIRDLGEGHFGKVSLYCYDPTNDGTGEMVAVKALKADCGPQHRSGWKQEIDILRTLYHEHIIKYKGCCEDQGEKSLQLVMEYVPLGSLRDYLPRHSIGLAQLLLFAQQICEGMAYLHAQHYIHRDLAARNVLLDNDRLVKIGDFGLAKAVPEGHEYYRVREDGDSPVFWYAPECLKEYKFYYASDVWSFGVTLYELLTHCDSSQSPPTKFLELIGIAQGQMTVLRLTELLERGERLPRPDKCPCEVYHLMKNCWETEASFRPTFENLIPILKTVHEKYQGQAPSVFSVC
Chain of JAK2/JAK2 homdimeric complex (O60674 whole entry): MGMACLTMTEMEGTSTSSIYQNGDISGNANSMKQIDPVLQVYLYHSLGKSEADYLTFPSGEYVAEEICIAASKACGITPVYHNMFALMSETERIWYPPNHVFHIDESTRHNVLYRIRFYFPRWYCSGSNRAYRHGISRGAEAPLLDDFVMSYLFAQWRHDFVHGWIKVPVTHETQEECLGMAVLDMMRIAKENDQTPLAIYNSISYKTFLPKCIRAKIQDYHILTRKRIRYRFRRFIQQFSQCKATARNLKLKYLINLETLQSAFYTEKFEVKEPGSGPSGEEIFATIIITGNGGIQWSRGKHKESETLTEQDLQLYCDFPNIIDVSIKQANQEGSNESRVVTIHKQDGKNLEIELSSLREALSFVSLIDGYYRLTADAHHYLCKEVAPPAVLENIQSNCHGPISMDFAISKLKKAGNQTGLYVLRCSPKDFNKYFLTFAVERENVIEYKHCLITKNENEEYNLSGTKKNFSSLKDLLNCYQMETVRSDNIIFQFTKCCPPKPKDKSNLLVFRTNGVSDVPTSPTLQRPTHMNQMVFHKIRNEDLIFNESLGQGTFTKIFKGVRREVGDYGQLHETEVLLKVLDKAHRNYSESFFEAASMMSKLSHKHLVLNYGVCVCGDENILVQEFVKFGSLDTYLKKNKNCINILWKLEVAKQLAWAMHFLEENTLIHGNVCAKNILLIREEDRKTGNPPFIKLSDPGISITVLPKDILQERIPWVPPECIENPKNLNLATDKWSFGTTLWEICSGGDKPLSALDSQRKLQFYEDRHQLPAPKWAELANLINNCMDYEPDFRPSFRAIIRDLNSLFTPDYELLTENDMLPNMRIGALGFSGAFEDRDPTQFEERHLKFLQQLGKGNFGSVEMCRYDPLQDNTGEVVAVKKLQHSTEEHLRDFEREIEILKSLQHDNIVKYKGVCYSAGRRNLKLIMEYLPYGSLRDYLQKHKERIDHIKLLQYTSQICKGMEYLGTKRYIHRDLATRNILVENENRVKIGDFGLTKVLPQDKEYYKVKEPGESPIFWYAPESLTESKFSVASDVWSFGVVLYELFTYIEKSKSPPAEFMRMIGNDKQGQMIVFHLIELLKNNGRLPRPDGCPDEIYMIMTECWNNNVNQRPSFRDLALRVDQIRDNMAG
Chain of JAK2/JAK2 homdimeric complex (P32927 17-897 partner): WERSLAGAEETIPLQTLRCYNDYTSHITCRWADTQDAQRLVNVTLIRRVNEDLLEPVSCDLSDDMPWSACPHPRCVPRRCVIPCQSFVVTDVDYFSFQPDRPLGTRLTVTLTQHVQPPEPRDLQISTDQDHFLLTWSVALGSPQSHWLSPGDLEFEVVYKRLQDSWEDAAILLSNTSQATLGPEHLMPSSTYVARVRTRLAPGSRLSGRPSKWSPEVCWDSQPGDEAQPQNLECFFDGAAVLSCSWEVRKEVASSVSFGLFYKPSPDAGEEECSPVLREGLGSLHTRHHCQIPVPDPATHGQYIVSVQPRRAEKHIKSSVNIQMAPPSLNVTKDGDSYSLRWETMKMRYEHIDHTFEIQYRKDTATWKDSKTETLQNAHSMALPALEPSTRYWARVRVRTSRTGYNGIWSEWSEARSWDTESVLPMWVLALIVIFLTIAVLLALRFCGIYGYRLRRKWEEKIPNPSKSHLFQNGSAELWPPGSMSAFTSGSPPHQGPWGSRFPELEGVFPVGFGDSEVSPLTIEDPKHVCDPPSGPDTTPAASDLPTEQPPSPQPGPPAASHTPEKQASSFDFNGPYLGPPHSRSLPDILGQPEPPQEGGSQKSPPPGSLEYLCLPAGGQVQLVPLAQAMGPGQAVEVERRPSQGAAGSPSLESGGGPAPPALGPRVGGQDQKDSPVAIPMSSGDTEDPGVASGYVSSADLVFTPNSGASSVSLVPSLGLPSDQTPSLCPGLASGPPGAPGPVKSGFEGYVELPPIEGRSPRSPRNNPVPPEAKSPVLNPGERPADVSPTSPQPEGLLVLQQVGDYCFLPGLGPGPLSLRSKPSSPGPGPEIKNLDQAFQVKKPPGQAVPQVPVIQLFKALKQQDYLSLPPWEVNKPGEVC
Chain of human TYK2 (JH2domain-pseudokinase) (P29597 556-888): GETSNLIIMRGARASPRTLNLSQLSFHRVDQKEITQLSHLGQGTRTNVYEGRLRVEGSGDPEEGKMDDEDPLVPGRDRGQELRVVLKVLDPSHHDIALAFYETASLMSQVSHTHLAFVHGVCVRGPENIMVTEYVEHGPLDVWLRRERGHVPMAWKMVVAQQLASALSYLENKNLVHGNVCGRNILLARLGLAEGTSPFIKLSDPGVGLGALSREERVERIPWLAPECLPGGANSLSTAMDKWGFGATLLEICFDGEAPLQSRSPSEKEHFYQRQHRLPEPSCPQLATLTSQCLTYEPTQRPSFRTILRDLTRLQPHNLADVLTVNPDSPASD

The inhibition is the share of the control response that was lost under treatment. The term IC50 denotes the point on the concentration scale where inhibition reaches its midpoint. What is called Kd is the constant that tells how readily two partners part at equilibrium. Lower therefore signals tighter binding. Turning to `CNc1cc(Nc2cccnc2OC)nc2c(C(=O)N[C@@H]3CC[C@H]3O)cnn12` [I-396], the inhibition at 10 µM on Tyk2 kinase domain (DH1) and on JAK2 kinase domain (JH1) was under 50% in each case. The results for the IC50 in assay [1] and in assay [2] were over 50000 nM and under 100 nM, respectively. The same molecule returned a Kd in assay [3] of under 0.2 nM.

As to `CNc1cc(Nc2cccnc2OC2CC2)nc2c(C(=O)N[C@@H]3CC[C@@H]3O)cnn12` [I-401], the inhibition at 10 µM at Tyk2 kinase domain (DH1) and at JAK2 kinase domain (JH1) was under 50% in each case. The results for the IC50 in assay [1] and in assay [2] were over 12500 nM and under 100 nM, respectively. For the same molecule, in assay [3], the Kd was under 0.2 nM.

As for `CNc1cc(Nc2cccn(-c3cnn(CC4CCOCC4)c3)c2=O)nc2c(C(=O)NC3CC3)cnn12` [I-406], the inhibition at 10 µM at Tyk2 kinase domain (DH1) and at JAK2 kinase domain (JH1) was under 50% each time. Besides, the IC50 in assay [1] was over 12500 nM; in assay [2], 100 to 500 nM. This molecule also gave a Kd in assay [3] of under 0.2 nM.

Regarding `CNc1cc(Nc2cccn(-c3cnn(CC4CCOCC4)c3)c2=O)nc2c(C(=O)N[C@H]3C[C@H]3F)cnn12` [I-407], the inhibition at 10 µM on Tyk2 kinase domain (DH1) and at JAK2 kinase domain (JH1) was under 50% each time. For the same molecule, the IC50 in assay [1] was over 12500 nM; in assay [2] it was under 100 nM. The same molecule showed a Kd in assay [3] of under 0.2 nM.

Take `CCONC(=O)c1cnn2c(NC)cc(Nc3cccnc3OC)nc12` [I-409, N-ethoxy-5-((2-methoxypyridin-3-yl)amino)-7-(methylamino)pyrazolo[1,5-a]pyrimidine-3-carboxamide]: the inhibition at 10 µM on Tyk2 kinase domain (DH1) and on JAK2 kinase domain (JH1) was under 50% throughout. Moreover, the half-inhibitory concentration (IC50) in assay [1] is over 12500 nM; in assay [2], under 100 nM. Further, the Kd in assay [3] is under 0.2 nM.

Regarding `[2H]C([2H])([2H])Oc1ncccc1Nc1cc(NC)n2ncc(C(=O)N[C@@H]3CC[C@H]3O)c2n1` [I-410], the inhibition at 10 µM on Tyk2 kinase domain (DH1) is under 50%; on JAK2 kinase domain (JH1), 50 to 70%. Further, the IC50 in assay [1] was over 12500 nM; in assay [2], under 100 nM. Also, in assay [3], the Kd was under 0.2 nM.

`[2H]C([2H])([2H])Oc1ncccc1Nc1cc(NC)n2ncc(C(=O)N[C@H]3CC[C@@H]3O)c2n1` [I-411]: the “Tyk2 JH1% Inhibition @ 10 μM” value at Tyk2 kinase domain (DH1) is reported as “A (percent inhibition at 10 μM lower than 50)”. For the same molecule, at JAK2 kinase domain (JH1), the “JAK2 JH1% Inhibition @ 10 μM” value is reported as “A (percent inhibition at 10 μM lower than 50)”. Also, the IC50 is over 50000 nM in assay [1] and under 100 nM in assay [2]. In addition, the Kd in assay [3] was under 0.2 nM.

Turning to `CNc1cc(Nc2cccn(C[C@@H]3CCCCO3)c2=O)nc2c(C(=O)NC3CC3)cnn12` [I-413], the inhibition at 10 µM at Tyk2 kinase domain (DH1) and at JAK2 kinase domain (JH1) was under 50% each time. For the same molecule, the IC50 in assay [1] was over 50000 nM; in assay [2], under 100 nM. The same molecule showed a Kd in assay [3] of under 0.2 nM.

As for `CNc1cc(Nc2cccn(C3CCC4(CC3)OCCO4)c2=O)nc2c(C(=O)N[C@@H]3C[C@@H]3F)cnn12` [I-415, N-((1R,2S)-2-fluorocyclopropyl)-7-(methylamino)-5-((2-oxo-1-(1,4-dioxaspiro 14.51 decan-8-yl)-1,2-dihydropyridin-3-yl)amino)pyrazolo[1,5-a]pyrimidine-3-carboxamide], the inhibition at 10 µM at Tyk2 kinase domain (DH1) and at JAK2 kinase domain (JH1) was under 50% each time. In addition, the IC50 in assay [1] is over 50000 nM; in assay [2] it was under 100 nM. In assay [3], the Kd was under 0.2 nM.

In the case of `CNc1cc(Nc2cccnc2OC)nc2c(C(=O)N[C@@H]3CCC[C@H]3O)cnn12` [I-423, N-((1R,2R)-2-hydroxycyclopentyl)-5-((2-methoxypyridin-3-yl)amino)-7-(methylamino)pyrazolo[1,5-a]pyrimidine-3-carboxamide], the inhibition at 10 µM at Tyk2 kinase domain (DH1) and on JAK2 kinase domain (JH1) was under 50% in each case. The IC50 was over 50000 nM in assay [1] and under 100 nM in assay [2]. Moreover, the Kd in assay [3] was under 0.2 nM.

Regarding `CNc1cc(Nc2cccnc2OC)nc2c(C(=O)NCC3(CO)CC3)cnn12` [I-425], the inhibition at 10 µM at Tyk2 kinase domain (DH1) and on JAK2 kinase domain (JH1) was under 50% in each case. Besides, the 50% inhibitory concentration (IC50) in assay [1] is over 50000 nM; in assay [2], under 100 nM. The molecule also registered a Kd in assay [3] of under 0.2 nM.

Turning to `CNc1cc(Nc2cccnc2OC2CC2)nc2c(C(=O)NCC3(CO)CC3)cnn12` [I-426], the inhibition at 10 µM at Tyk2 kinase domain (DH1) and at JAK2 kinase domain (JH1) was under 50% throughout. The figures for the IC50 in assay [1] and in assay [2] were over 50000 nM and under 100 nM, respectively. In assay [3], the Kd was under 0.2 nM.

As for `CNc1cc(Nc2cccn(C[C@@H]3CCCCO3)c2=O)nc2c(C(=O)N[C@@H]3C[C@@H]3F)cnn12` [I-428], the inhibition at 10 µM on Tyk2 kinase domain (DH1) and on JAK2 kinase domain (JH1) was under 50% throughout. The values for the IC50 in assay [1] and in assay [2] were over 50000 nM and under 100 nM, respectively. In assay [3], this molecule showed a Kd of under 0.2 nM.

Regarding `CNc1cc(Nc2cccnc2OC)nc2c(C(=O)N[C@H]3CC[C@H]3O)cnn12` [I-429], the inhibition at 10 µM on Tyk2 kinase domain (DH1) and at JAK2 kinase domain (JH1) was under 50% each time. In addition, the IC50 in assay [1] was over 50000 nM; in assay [2] it was under 100 nM. This molecule had a Kd in assay [3] of under 0.2 nM.

`CNc1cc(Nc2cccnc2OC2CC2)nc2c(C(=O)NCC(C)CO)cnn12` (stereo not shown) [I-435]: the inhibition at 10 µM at Tyk2 kinase domain (DH1) and at JAK2 kinase domain (JH1) was under 50% in each case. The IC50 in assay [1] is over 50000 nM; in assay [2], 100 to 500 nM. The same molecule returned a Kd in assay [3] of under 0.2 nM.

Consider `CNc1cc(Nc2cccnc2OC)nc2c(C(=O)N[C@H]3C[C@@H]3O)cnn12` [I-438, N-((1S,2S)-2-hydroxycyclopropyl)-5-((2-methoxypyridin-3-yl)amino)-7-(methylamino)pyrazolo[1,5-a]pyrimidine-3-carboxamide], for which the inhibition at 10 µM at Tyk2 kinase domain (DH1) and on JAK2 kinase domain (JH1) was under 50% each time. The IC50 in assay [1] was over 50000 nM; in assay [2], under 100 nM. Besides, the Kd in assay [3] was under 0.2 nM.

For the molecule `CNc1cc(Nc2cccn([C@@H]3CCCOC3)c2=O)nc2c(C(=O)N[C@@H]3C[C@@H]3F)cnn12` [I-474], the inhibition at 10 µM on Tyk2 kinase domain (DH1) and on JAK2 kinase domain (JH1) was under 50% throughout. The IC50 in assay [1] was over 12500 nM; in assay [2] it was under 100 nM. Also, the Kd in assay [3] is under 0.2 nM.

As for `CNc1cc(Nc2cccnc2OC)nc2c(C(=O)NC[C@H](C)CO)cnn12` [I-483], the inhibition at 10 µM at Tyk2 kinase domain (DH1) and on JAK2 kinase domain (JH1) was under 50% each time. The IC50 in assay [1] is over 50000 nM; in assay [2] it was under 100 nM. The molecule also returned a Kd in assay [3] of under 0.2 nM.

For `[2H]C([2H])([2H])Oc1ncccc1Nc1cc(NC)n2ncc(C(=O)N[C@@H]3CCC[C@@H](O)C3)c2n1` [I-499], the inhibition at 10 µM at Tyk2 kinase domain (DH1) and at JAK2 kinase domain (JH1) was under 50% each time. Besides, the IC50 in assay [1] is over 50000 nM; in assay [2] it was under 100 nM. Moreover, the Kd in assay [3] was under 0.2 nM.

Take `[2H]C([2H])([2H])Oc1ncccc1Nc1cc(NC)n2ncc(C(=O)N[C@H]3CC[C@H](O)C3)c2n1` [I-500]: the “Tyk2 JH1% Inhibition @ 10 μM” value on Tyk2 kinase domain (DH1) is “A (percent inhibition at 10 μM lower than 50)”. In addition, the “JAK2 JH1% Inhibition @ 10 μM” value at JAK2 kinase domain (JH1) is reported as “A (percent inhibition at 10 μM lower than 50)”. Further, the IC50 in assay [1] was over 50000 nM; in assay [2], under 100 nM. In addition, in assay [3], the Kd was under 0.2 nM.

`CNc1cc(Nc2cccn(-c3ncccc3F)c2=O)nc2c(C(=O)NCC(C)(C)CO)cnn12` [I-510]: the inhibition at 10 µM at Tyk2 kinase domain (DH1) and on JAK2 kinase domain (JH1) was under 50% each time. The IC50 in assay [1] was over 50000 nM; in assay [2], under 100 nM. Further, the Kd in assay [3] is under 0.2 nM.

In the case of `CNc1cc(Nc2cccn([C@H]3CC[C@H](OC)CC3)c2=O)nc2c(C(=O)N[C@H]3CC[C@H]3O)cnn12` [I-539], the inhibition at 10 µM at Tyk2 kinase domain (DH1) and at JAK2 kinase domain (JH1) was under 50% throughout. For the same molecule, the IC50 was over 50000 nM in assay [1] and under 100 nM in assay [2]. The molecule also had a Kd in assay [3] of under 0.2 nM.

For `CNc1cc(Nc2cccn([C@H]3CC[C@H](OC)CC3)c2=O)nc2c(C(=O)N[C@H]3CC[C@@H]3O)cnn12` [I-540], the inhibition at 10 µM at Tyk2 kinase domain (DH1) and on JAK2 kinase domain (JH1) was under 50% throughout. Besides, the figures for the IC50 in assay [1] and in assay [2] were over 12500 nM and under 100 nM, respectively. In addition, the Kd in assay [3] is under 0.2 nM.

Regarding `CNc1cc(Nc2cccn([C@H]3CC[C@H](OC)CC3)c2=O)nc2c(C(=O)NCC(C)(C)CO)cnn12` [I-544], the inhibition at 10 µM on Tyk2 kinase domain (DH1) and at JAK2 kinase domain (JH1) was under 50% throughout. Besides, the figures for the IC50 in assay [1] and in assay [2] were over 2500 nM and under 100 nM, respectively. In addition, in assay [3], the Kd was under 0.2 nM.

In the case of `CNc1cc(Nc2cccn([C@H]3CC[C@H](OC)CC3)c2=O)nc2c(C(=O)NCC3(CO)CC3)cnn12` [I-545], the inhibition at 10 µM at Tyk2 kinase domain (DH1) and on JAK2 kinase domain (JH1) was under 50% throughout. The IC50 in assay [1] was over 2500 nM; in assay [2], 100 to 500 nM. The molecule further had a Kd in assay [3] of under 0.2 nM.

For the molecule `CNc1cc(Nc2cccnc2OC2CC2)nc2c(C(=O)N[C@H]3COC[C@H]3O)cnn12` [I-547], the inhibition at 10 µM on Tyk2 kinase domain (DH1) and at JAK2 kinase domain (JH1) was under 50% each time. Moreover, the IC50 was over 50000 nM in assay [1] and 100 to 500 nM in assay [2]. For the same molecule, in assay [3], the Kd was under 0.2 nM.

(Values after patent US10508120B2, “TYK2 inhibitors and uses thereof” (Nimbus Lakshmi, Inc., priority 2017, dated 2019).)
